# Data taken from patent US20190231785A1, “PHOSPHODIESTERASE INHIBITOR TREATMENT” (Cyrano Therapeutics, Inc., priority 2012, published 2019).
# Marks after values point to notes of the source that are not given here.
# Assays:
# patients with hyposmia [1] = test: Side effects of oral theophylline (Example 1); format: in vivo, human; settings: divided doses in middle of meals
# Source text: Patients were required to take the drug in divided doses in middle of meals (breakfast and lunch).
# [2] = asthma and COPD; cited from earlier work
# patients with hyposmia [3] = test: Classification of patients as improved or unimproved on theophylline (Example 2); format: in vivo, human
# Method: (§1) All patients were placed in a fixed design open label clinical trial with treatment with oral theophylline. Treatment consisted of fixed treatment periods of two-eight months with sequential doses of the drug at 200 mg, 400 mg and 600 mg. At termination of each of these intervals, patients returned to study site for reevaluation. At the end of each interval subjective responses to treatment were measured with a modification of the 0-100 scale previously used (vs). Subjective responses to treatment were graded on a sliding scale from −100-0-+100 with patients recording improvement (+0-+100), no improvement (0) or worsening (0-−100) of their overall smell function. If overall smell function improved ≥5% they were considered to improve clinically (1). If smell function improved <5% they were considered not to improve (1). At the end of each interval subjective measurements of smell function, measurements of DT, RT, ME and H and measurements of parotid saliva for levels of cAMP and cGMP were obtained. In addition, blood plasma was obtained by venipuncture, placed in ice into zinc free tubes which contained 100 mg zinc free heparin, centrifuged at 3000 rpm for 10-20 min, the plasma transferred to plastic PCR tubes and stored at −20° C. until assayed. Theophylline was assayed by a fluorescence polarization assay (Abbott, Chicago, Ill.), as previously described.
# (§2) Data for the cyclic nucleotides from these 31 patients was not analyzed until the entire study of the 312 patients in Example 1 was assembled and analyzed in its entirety. After completion of these analyses, all data for parotid saliva cAMP and cGMP from all patients in whom salivary cAMP and cGMP were obtained were assembled. Levels of salivary cyclic nucleotides varied widely. Initially, without external criteria, there was no way to understand these disparate data. […] In a similar manner, measurements of each patient's plasma theophylline level at each dosage of theophylline (at 200 mg, 400 mg, 600 mg of theophylline) were categorized. The two patient groups were also analyzed post hoc with respect to type of smell loss and etiology of smell loss.
# Differences in the characteristics between these two patient groups were analyzed with respect to each measurement obtained (Mean±SEM). Differences between mean±SEM were analyzed using Student t test and X2; differences of p≤5% were considered significant.
# [4] = system: patients with hyposmia and hypogeusia; settings: oral 200 to 800 mg/d
# Method: (§4) Smell and taste functions under each study condition were measured by standardized psychophysical sensory testing techniques. Measurements included determination of detection thresholds (DTs), recognition thresholds (RTs), magnitude estimation (ME), and hedonic response (HR) for 4 odors (e.g., pyridine [dead fish], nitrobenzene [bitter almond], thiophene [petroleum], and amyl acetate [banana oil]) (olfactometry) and for 4 tastants (e.g., sodium chloride [salt], sucrose [sweet], hydrochloride [sour], and urea [bitter]) (gustometry). […] Each measurement was performed independent of any prior knowledge of response.
# (§5) Values for the oral trial were taken from the last measurements made before discontinuation of oral drug treatment and before initiation of the intranasal trial. This period varied from 2 to 12 months after oral treatment initiation and reflected the maximal improvement in sensory function each patient experienced.
# (§6) The mean and standard error of the mean for all values obtained at each study condition were compared. Differences were considered significant if P<0.05 by the unpaired t test. Paired comparison tests were also used with differences considered significant if P<0.05 by the t test.
# asthmatic patients = test: sGaw after dry powder inhalation, dose escalating single blind study (Examples 5 and 6); settings: 2 mg theophylline
# Method: To test this theory, asthmatic patients are enrolled in a dose escalating single blind study. On arrival to the clinic, subjects are allowed to rest for 20 minutes before baseline measurements of FEV1 (six recordings) and sGaw (five recordings) are made. Subjects receive a dry powder dispenser loaded with a dose of 2 mg theophylline or a dry powder carrier. […] After each inhalation, measurements of sGaw are made at 1, 3, 5, 10, 15, 20, 25, and 30 minutes.
# On completion of the last recording, subjects inhale a 200 μg dose of salbutamol from a metered inhaler and a further measurement of sGaw is made after 15 minutes. Subjects are also monitored for coughing and are questioned about the taste of the drug.
# Asthmatic patients are enrolled in a dose escalating single blind study. On arrival to the clinic, subjects are allowed to rest for 20 minutes before baseline measurements of FEV1 (six recordings) and sGaw (five recordings) are made. Subjects receive a dry powder dispenser loaded with a dose of 1 mg IBMX formulated as a dry powder or a dry powder carrier. […] After each inhalation, measurements of sGaw are made at 1, 3, 5, 10, 15, 20, 25, and 30 minutes.
# On completion of the last recording, subjects inhale a 200 μg dose of salbutamol from a metered inhaler and a further measurement of sGaw mad after 15 minutes. Subjects are also be monitored for coughing and are questioned about the taste of the drug.
# [5] = system: patients with hyposmia and hypogeusia; settings: oral 200 to 800 mg/d; remark: listed apart in the source
# Method: as §4, §5, §6
# cAMP = test: Parotid saliva cAMP before and after oral theophylline (Example 2); format: in vivo, human; settings: for parotid saliva cAMP: mean ± SEM
# Method: (§3) Parotid saliva was collected from each patient by application of a Lashley cup over Stensen's duct with lingual stimulation by placement of concentrated lemon juice. Saliva was collected in plastic tubes and stored at −20° C. until assayed. cAMP and cGMP were measured in saliva by a sensitive 96 plate spectrophotometric assay (R&D Systems, Minneapolis, Minn.).
# as §1, §2
# [6] = system: patients with hyposmia and hypogeusia; test: Subjective changes in smell and taste function by questionnaire, scale 0 to 100 (Example 8); format: in vivo, human; settings: oral 200 to 800 mg/d; of 10 patients
# Method: Subjective changes in smell and taste function under each study condition were measured by questionnaire before measurements of smell or taste function. Responses were graded on a scale from 0 to 100, with 0 reflecting no subjective response in overall sensory function; 100, return to normal sensory function; and values between 0 and 100 intermediate responses. Overall sensory function was defined as the ability to smell all odors and identify all tastants, although response intensity varied.
# as §5
# cGMP = test: Parotid saliva cGMP before and after oral theophylline (Example 2); format: in vivo, human; settings: mean ± SEM
# Method: as §3, §1, §2
# [7] = of 31 patients on oral theophylline 200-600 mg
# [8] = patients with unimproved smell function, oral 200 mg (9 patients)
smiles,measurement,setting,value
Cn1c(=O)c2[nH]cnc2n(C)c1=O [theophylline],side effects among patients,patients with hyposmia [1],generally minimal
same,concentrations at which anti-inflammatory effects are seen,[2],less than 10 mg/L
same,patients identified as having improved smell function,patients with hyposmia [3]; [7],20 patients
same,patients who did not improve,patients with hyposmia [3]; [7],11 patients
same,improved patients exhibiting Type II hyposmia,"patients with hyposmia [3]; oral theophylline, Example 2",95%
same,"patient number, improved, etiology PIHH","patients with hyposmia [3]; oral theophylline, Example 2",6
same,"patient number, improved, etiology allergic rhinitis (AR)","patients with hyposmia [3]; oral theophylline, Example 2",8
same,"patient number, improved, etiology head injury (HI)","patients with hyposmia [3]; oral theophylline, Example 2",3
same,"patient number, improved, etiology other","patients with hyposmia [3]; oral theophylline, Example 2",3
same,"patient number, improved, smell loss Type I","patients with hyposmia [3]; oral theophylline, Example 2",1
same,"patient number, improved, smell loss Type II","patients with hyposmia [3]; oral theophylline, Example 2",19^a
same,"patient number, unimproved, etiology PIHH","patients with hyposmia [3]; oral theophylline, Example 2",0
same,"patient number, unimproved, etiology allergic rhinitis (AR)","patients with hyposmia [3]; oral theophylline, Example 2",8
same,"patient number, unimproved, etiology head injury (HI)","patients with hyposmia [3]; oral theophylline, Example 2",3
same,"patient number, unimproved, etiology other","patients with hyposmia [3]; oral theophylline, Example 2",0
same,"patient number, unimproved, smell loss Type I","patients with hyposmia [3]; oral theophylline, Example 2",4
same,"patient number, unimproved, smell loss Type II","patients with hyposmia [3]; oral theophylline, Example 2",7
same,unimproved patients exhibiting Type I hyposmia,"patients with hyposmia [3]; oral theophylline, Example 2",57%
same,hyposmia (olfactometry overall),[4],improved with 2 to 12 months of treatment
same,DTs and RTs for all odorants,[4]; 2 to 12 months,decreased (more sensitive)
same,HRs for all odorants,[4]; 2 to 12 months,increased
same,MEs for all odorants,[4]; 2 to 12 months,increased (more sensitive)
same,increase in sGaw compared with 200 μg salbutamol,asthmatic patients,comparable to that produced by salbutamol
same,sGaw above the baseline measurement after 30 minutes,asthmatic patients,20%
same,taste and coughing of the dry powder formulation,asthmatic patients,without the unpleasant taste or the induction of coughing
same,time until sGaw baseline is reached,asthmatic patients,1 h
same,hypogeusia (gustometry overall),[5],improved after 2 to 12 months of treatment
same,"DTs for sucrose and hydrochloride and RTs for sodium chloride, hydrochloride and urea",[5]; 2 to 12 months,decreased (more sensitive)
same,HR for hydrochloride and urea,[5]; 2 to 12 months,increased (more unpleasant)
same,magnitude estimations for all tastants,[5]; 2 to 12 months,increased (more sensitive)
same,increase of saliva cAMP above baseline,"cAMP; improved patients, oral 200 mg, not significant",10%
same,increase of saliva cAMP over baseline,"cAMP; improved patients, oral 400 mg, not statistically significant",40%
same,increase of saliva cAMP above initial values,"cAMP; improved patients, oral 600 mg, significant",67%
same,parotid saliva cAMP,"cAMP; patients with improved smell function, oral 200 mg (16 patients)",0.96 ± 0.13 pmol/mL
same,parotid saliva cAMP,cAMP; [8],0.78 ± 0.26 pmol/mL
same,parotid saliva cAMP,"cAMP; patients with unimproved smell function, oral 400 mg (5 patients)",0.95 ± 0.26 pmol/mL
same,parotid saliva cAMP,"cAMP; patients with unimproved smell function, oral 600 mg (9 patients)",0.56 ± 0.21 pmol/mL
same,patients reporting no improvement,[6],4 patients
same,parotid saliva cGMP,"cGMP; patients with improved smell function, oral 200 mg (15 patients)",0.08 ± 0.016 pmol/mL
same,parotid saliva cGMP,cGMP; [8],0.07 ± 0.018 pmol/mL
same,parotid saliva cGMP,"cGMP; patients with unimproved smell function, oral 400 mg (4 patients)",0.05 ± 0.014 pmol/mL
same,parotid saliva cGMP,"cGMP; patients with unimproved smell function, oral 600 mg (5 patients)",0.04 ± 0.07 pmol/mL
